# Values quoted from earlier work in patent US20210121515A1, “COMPOSITION FOR USE IN THE PREVENTION AND/OR TREATMENT OF OSTEOARTICULAR DISEASES” (NEILOS S.R.L., priority 2018, published 2021).
# pIC50: −log10 of the molar value.
# What was measured:
# [1] = tested on: NF-κB, COX-2, superoxide dismutase; details: rats
# [2] = target: T1, mPGES-1 (Homo sapiens, UniProt O14684); details: intact A549 cell assays
# T1 construct: with an IC50 of 10 μM in intact A549 cell assays; endogenous in cells; host or cells: A549
# T1 sequence (O14684 1-152): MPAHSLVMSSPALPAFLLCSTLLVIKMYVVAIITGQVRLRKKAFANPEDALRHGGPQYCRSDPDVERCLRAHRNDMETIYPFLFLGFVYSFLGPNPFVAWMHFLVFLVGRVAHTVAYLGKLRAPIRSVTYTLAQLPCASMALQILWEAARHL
# [3] = tested on: carrageenan edema and pleurisy; details: doses of 1 mg/kg; comparable to 5 mg/kg of indomethacin
Structure (SMILES),levels of COX-2 [1],levels of NF-κB [1],levels of superoxide dismutase [1],pIC50 [2],activity in acute inflammation models [3]
O=C(O)[C@H]1O[C@@H](Oc2cc3oc(-c4ccccc4)cc(=O)c3c(O)c2O)[C@H](O)[C@@H](O)[C@@H]1O [baicalin],reduce,reduce,increasing,–,–
C[C@H]1[C@H](C)CC[C@]2(C)CC[C@]3(C)C(=CC[C@@H]4[C@@]5(C)CC[C@@H](O)[C@](C)(C(=O)O)[C@@H]5CC[C@]43C)[C@H]12 [β-boswellic acid],–,–,–,5.00,good activity
